# Test results published in publication PMC6934184, “Selective DNA-PKcs inhibition extends the therapeutic index of localized radiotherapy and chemotherapy” (The Journal of Clinical Investigation, 2019).
# Target: T1, CLK4 (Homo sapiens, UniProt Q9HAZ1)
# T1 construct: purchased Thermo Fisher Scientific (Life Technologies) SelectScreen
# Assay: SelectScreen LanthaScreen
# Assay type: binding
# Details: read-out: % displacement
# In short: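 NU5455 was profiled across the SelectScreen Broad panel of kinase activity and binding assays. Z'LYTE reactions such as CSF1R ran at apparent Km ATP, while the Adapta CAMK1 assay used ATP listed as 10. Values are given as percent.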
# T1 sequence (Q9HAZ1 whole entry): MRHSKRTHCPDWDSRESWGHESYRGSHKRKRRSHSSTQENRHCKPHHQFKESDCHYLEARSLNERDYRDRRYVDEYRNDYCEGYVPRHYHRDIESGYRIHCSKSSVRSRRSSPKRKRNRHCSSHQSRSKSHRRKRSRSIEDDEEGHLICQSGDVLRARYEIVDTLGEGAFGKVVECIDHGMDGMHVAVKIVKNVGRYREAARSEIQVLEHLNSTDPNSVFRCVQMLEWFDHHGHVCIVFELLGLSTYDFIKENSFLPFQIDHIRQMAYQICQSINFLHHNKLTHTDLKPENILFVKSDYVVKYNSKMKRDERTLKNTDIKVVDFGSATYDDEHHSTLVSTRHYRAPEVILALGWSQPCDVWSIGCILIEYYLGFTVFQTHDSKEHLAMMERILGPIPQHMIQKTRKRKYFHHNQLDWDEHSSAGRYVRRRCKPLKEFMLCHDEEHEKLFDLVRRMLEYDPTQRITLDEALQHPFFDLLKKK
structure (smiles),measurement,value
CN(C(=O)CN1CCOCC1)c1ccc2sc3c(-c4cccc5c(=O)cc(N6CC7CCC(C6)O7)oc45)cccc3c2c1 [NU5455],inhibition at 1 µM,1.4%
